# What was measured:
# d-IBS = test: IBS-QOL questionnaire in d-IBS patients, rifaximin 550 mg BID vs placebo; assay type: in vivo, human; details: Week 4
# Description: Both groups received placebo for an additional 14 days after the initial 2-week treatment. Quality of life was assessed with the 34-item IBS-QOL questionnaire at baseline and 4 weeks after initiating treatment. Each item was scored on a 5-point scale (1=not at all; 2=slightly; 3=moderately; 4=quite a bit; and 5=extremely or a great deal). Results for composite and subscale scores were converted to a scale ranging from 0 to 100, with higher scores indicating better QOL.
# Following a 2-week initial treatment period, both groups of patients received placebo for an additional 14 days. Quality of life was assessed via the 34-item IBS-QOL questionnaire at baseline and 4 weeks after initiating treatment. Each item was scored on a 5-point scale (1=not at all; 2=slightly; 3=moderately; 4=quite a bit; 5=extremely or a great deal); results for composite and subscale scores were converted to a scale ranging from 0 to 100, with higher scores indicating better QOL.
# cytochrome P450 2C19 = cytochrome P450 2C19 (Homo sapiens, UniProt P33261); test: In vitro cytochrome P450 inhibition; assay type: biochemical; details: 2 to 200 ng/mL
# [1] = test system: hepatic encephalopathy (HE), commonly-occurring infections; test: Infection rates in cirrhotic patients with HE on long-term rifaximin 550 mg BID (RCT and open-label maintenance); assay type: in vivo; details: for Any infection: rate = number of subjects/PEY; for C. difficile infection / Cellulitis / Peritonitis / Pneumonia / Urinary tract/kidney infection: human, in vivo
# Source text: Cirrhosis patients can have an increased risk of infections and subsequent hospitalizations, leading to increased mortality. […] A description of the OLM and RCT can be found in WO 2011/005388, “METHODS OF TREATING HEPATIC ENCEPHALOPATHY,” which is incorporated herein by reference in its entirety. In the analysis below, the effect of long term RFX treatment on infection rates and antibiotic use was examined.
# Patients with cirrhosis and ≥2 overt HE episodes within 12 months were enrolled in the RCT (RFX=140; placebo [PBO]=159); 170 new patients, in addition to 70 RFX and 82 PBO patients who rolled over from the RCT were enrolled in OLM. The “All RFX group” (n=392) consisted of RFX-treated patients in both studies. Infection rates per person exposure years (PEY) were compared across RCT and All RFX groups, and antibiotic use over time was examined.
# In the 6 month RCT, RFX exposure was 50 PEY vs 46 PEY in the PBO group. Long term RFX exposure was for median=427 (2-1427) days, or 510 PEY. […] Overall, use of antibiotics (oral and intravenous) remained the same or declined with time.
# [2] = Crossover drug interaction study: oral cyclosporine 600 mg on pharmacokinetics of single-dose rifaximin 550 mg; assay type: in vivo, human
# Description: Eligible subjects were healthy men and women 18 to 45 years of age. […] The 2 dosing periods were separated by 7 days. […] Subjects underwent a supervised fast overnight (for >8 hours) before dosing and for 4 hours after dosing, though water was permitted ad libitum. Subjects remained at the clinical research unit from Day 0 through the morning of Day 3, and from Day 7 through Day 10. A follow-up phone contact was made 3 (+1) days after discharge, which concluded their participation in the study. Study duration was up to 35 days, including a 21-day screening window, dosing on Day 1, a 7-day washout period, dosing on Day 8, discharge from the clinic on Day 10, and a 3 (+1) day follow-up period after discharge.
# P-glycoprotein = target: T1, P-glycoprotein (Homo sapiens, UniProt P08183); test: Bidirectional permeability and efflux ratio of rifaximin in Caco-2 cells with P-glycoprotein inhibitors; assay type: in vitro ADME; details: for Decrease of rifaximin ER in presence of GF120918 (0.5 μM) and verapamil (60 μM): rifaximin 5 μM
# T1 construct: Caco-2 cells, a human epithelial colorectal adenocarcinoma cell line; endogenous in cells; host or cells: Caco-2
# Source text: The ER is the ratio of efflux permeability (basolateral to apical, B-A) to absorptive permeability (apical to basolateral, A-B), and values >1 are indicative of greater efflux than absorption.
# [3] = rifaximin 1100 mg/d 14 d (n = 191)
# [4] = both sexes, human, plasma, oral
# [5] = both sexes, human, plasma, oral, 550 mg
# T1 sequence (P08183 whole entry): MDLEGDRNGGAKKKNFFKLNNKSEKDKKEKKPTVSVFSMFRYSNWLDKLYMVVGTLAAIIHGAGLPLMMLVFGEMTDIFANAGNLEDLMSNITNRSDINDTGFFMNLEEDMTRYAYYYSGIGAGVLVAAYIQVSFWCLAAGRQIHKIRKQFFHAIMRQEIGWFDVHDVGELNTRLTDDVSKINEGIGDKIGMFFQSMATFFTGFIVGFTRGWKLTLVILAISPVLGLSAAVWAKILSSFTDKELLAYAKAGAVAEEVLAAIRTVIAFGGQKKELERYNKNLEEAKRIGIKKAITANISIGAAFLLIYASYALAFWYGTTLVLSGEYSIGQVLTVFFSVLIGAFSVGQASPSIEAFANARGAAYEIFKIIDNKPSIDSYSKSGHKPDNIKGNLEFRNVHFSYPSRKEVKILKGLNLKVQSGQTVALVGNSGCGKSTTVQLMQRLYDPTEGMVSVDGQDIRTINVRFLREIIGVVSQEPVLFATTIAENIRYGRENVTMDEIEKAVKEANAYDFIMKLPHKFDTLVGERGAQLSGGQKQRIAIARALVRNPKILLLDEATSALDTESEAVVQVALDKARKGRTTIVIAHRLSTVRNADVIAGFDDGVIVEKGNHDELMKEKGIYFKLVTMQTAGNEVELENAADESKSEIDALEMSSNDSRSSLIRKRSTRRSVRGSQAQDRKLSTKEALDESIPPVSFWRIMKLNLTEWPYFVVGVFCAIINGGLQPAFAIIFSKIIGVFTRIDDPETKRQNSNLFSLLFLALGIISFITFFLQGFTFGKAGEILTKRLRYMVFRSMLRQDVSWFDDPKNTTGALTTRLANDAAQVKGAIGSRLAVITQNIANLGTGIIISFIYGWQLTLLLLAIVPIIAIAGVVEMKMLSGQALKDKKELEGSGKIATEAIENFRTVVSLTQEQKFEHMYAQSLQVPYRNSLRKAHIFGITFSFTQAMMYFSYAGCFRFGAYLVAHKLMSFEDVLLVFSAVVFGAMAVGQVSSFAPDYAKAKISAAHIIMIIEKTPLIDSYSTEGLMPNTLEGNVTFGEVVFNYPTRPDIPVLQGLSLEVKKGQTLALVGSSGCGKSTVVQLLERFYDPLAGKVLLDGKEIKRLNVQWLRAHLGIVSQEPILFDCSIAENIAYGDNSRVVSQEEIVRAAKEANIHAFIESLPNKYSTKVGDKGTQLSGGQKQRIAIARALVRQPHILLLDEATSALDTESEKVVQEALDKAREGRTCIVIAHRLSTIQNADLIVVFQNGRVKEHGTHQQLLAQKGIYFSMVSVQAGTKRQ
# Chain of cytochrome P450 2C19 (P33261 whole entry): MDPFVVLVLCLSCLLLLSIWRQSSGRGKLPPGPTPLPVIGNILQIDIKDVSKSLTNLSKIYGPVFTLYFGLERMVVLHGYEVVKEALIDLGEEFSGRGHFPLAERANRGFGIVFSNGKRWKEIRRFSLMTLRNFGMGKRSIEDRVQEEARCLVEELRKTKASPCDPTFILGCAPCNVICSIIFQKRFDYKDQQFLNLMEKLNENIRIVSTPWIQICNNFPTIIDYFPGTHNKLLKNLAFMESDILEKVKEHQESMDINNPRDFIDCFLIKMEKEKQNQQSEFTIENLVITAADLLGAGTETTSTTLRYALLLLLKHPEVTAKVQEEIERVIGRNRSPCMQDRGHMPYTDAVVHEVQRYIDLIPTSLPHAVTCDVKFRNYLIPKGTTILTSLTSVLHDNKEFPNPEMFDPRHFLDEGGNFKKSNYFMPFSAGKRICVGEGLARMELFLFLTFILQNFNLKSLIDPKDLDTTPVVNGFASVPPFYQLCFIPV
compound,measurement,setting,value
"CO[C@H]1/C=C/O[C@@]2(C)Oc3c(C)c(O)c4c(O)c(c5c(nc6cc(C)ccn65)c4c3C2=O)NC(=O)/C(C)=C\C=C\[C@H](C)[C@H](O)[C@@H](C)[C@@H](O)[C@@H](C)[C@H](OC(C)=O)[C@@H]1C [Rifaximin, (2S,16Z,18E,20S,21S,22R,23R,24R,25S,26S,27S,28E)-5,6,21,23,25 Pentahydroxy-27-methoxy-2,4,11,16,20,22,24,26-octamethyl-2,7-(epoxypentadeca-(1,11,13)trienimino) benzofuro (4,5-e) pyrido(1,2-a) benzimidazole-1,15(2H)-dione,25-acetate]","Improvement with rifaximin over placebo, IBS-QOL Body image",d-IBS; 1100 mg/d,37.4%
same,"Improvement with rifaximin over placebo, IBS-QOL Dysphoria",d-IBS; 1100 mg/d,25.3%
same,"Improvement with rifaximin over placebo, IBS-QOL Food avoidance",d-IBS; 1100 mg/d,22.1%
same,"Improvement with rifaximin over placebo, IBS-QOL Health worry",d-IBS; 1100 mg/d,30.6%
same,"Improvement with rifaximin over placebo, IBS-QOL Interference with activity",d-IBS; 1100 mg/d,22.2%
same,"Improvement with rifaximin over placebo, IBS-QOL Overall score",d-IBS; 1100 mg/d,28.7%
same,"Improvement with rifaximin over placebo, IBS-QOL Relationship",d-IBS; 1100 mg/d,39.5%
same,"Improvement with rifaximin over placebo, IBS-QOL Sexual",d-IBS; 1100 mg/d,24.9%
same,"Improvement with rifaximin over placebo, IBS-QOL Social reaction",d-IBS; 1100 mg/d,31.6%
same,"Mean change from baseline in IBS-QOL, Body image",d-IBS; [3],20.1
same,"Mean change from baseline in IBS-QOL, Dysphoria",d-IBS; [3],24.8
same,"Mean change from baseline in IBS-QOL, Food avoidance",d-IBS; [3],25.0
same,"Mean change from baseline in IBS-QOL, Health worry",d-IBS; [3],16.0
same,"Mean change from baseline in IBS-QOL, Interference with activity",d-IBS; [3],22.2
same,"Mean change from baseline in IBS-QOL, Relationship",d-IBS; [3],14.9
same,"Mean change from baseline in IBS-QOL, Sexual",d-IBS; [3],13.6
same,"Mean change from baseline in IBS-QOL, Social reaction",d-IBS; [3],17.3
same,"Mean change from baseline in IBS-QOL, Overall score","d-IBS; rifaximin 1100 mg/d 14 d (n = 191), 0-100 scale",20.4
same,Inhibition of cytochrome P450 2C19,cytochrome P450 2C19,does not inhibit
same,Any infection,"[1]; All RFX patients (n = 392), PEY = 510",214 (0.072) N (rate*)
same,Any infection,"[1]; RCT RFX 550 mg BID (n = 140), PEY = 50",46 (0.112) N (rate*)
same,C. difficile infection,[1],6 (0.012) N (rate*)
same,Cellulitis,[1],34 (0.071) N (rate*)
same,Peritonitis,[1],22 (0.044) N (rate*)
same,Pneumonia,[1],42 (0.084) N (rate*)
same,Urinary tract/kidney infection,[1],83 (0.193) N (rate*)
same,C. difficile infection,[1]; 6 months,2 (0.040) N (rate*)
same,Cellulitis,[1]; 6 months,3 (0.006) N (rate*)
same,Peritonitis,[1]; 6 months,3 (0.060) N (rate*)
same,Pneumonia,[1]; 6 months,4 (0.080) N (rate*)
same,Urinary tract/kidney infection,[1]; 6 months,9 (0.187) N (rate*)
same,Tmax,[2]; [4],2 h
same,half-life,[2]; [4],6.61 h
same,AUC(0-inf),[2]; [5],2.53 ng·h/mL
same,Cmax,[2]; [5],0.48 ng/mL
same,Tmax,[2]; [5],1 h
same,half-life,[2]; [5],2.86 h
same,Increase in rifaximin mean AUC on co-administration of cyclosporine,[2]; healthy subjects,124 fold
same,Increase in rifaximin mean Cmax on co-administration of cyclosporine,[2]; healthy subjects,83 fold
same,Maximum inhibition of rifaximin efflux permeability due to P-glycoprotein inhibition by verapamil,P-glycoprotein; Caco-2 cells,12 fold
same,P-glycoprotein substrate status,P-glycoprotein; Caco-2 cells and membrane vesicles,substrate for P-glycoprotein
same,Papp A→B,"P-glycoprotein; human, Caco-2 monolayers, 0.5, 5, and 50 μM, read-out: Net permeability in the absorptive direction",~1 ×10⁻⁶ cm/s
same,Decrease of rifaximin ER in presence of GF120918 (0.5 μM) and verapamil (60 μM),P-glycoprotein; Round 1,8- to 12 fold
same,Decrease of rifaximin ER in presence of GF120918 (0.5 μM) and verapamil (60 μM),P-glycoprotein; Round 2,3- to 6 fold
